Measured values from patent publication US8686150B2 (Sanofi, priority 2011, dated 2014).

Target: T1, human full-length recombinant PKC βII (Homo sapiens, UniProt P05771)
T1 construct: Active human full-length recombinant PKC βII; purchased Invitrogen GmbH, Darmstadt, Germany
Assay: Determination of PKC βII inhibition (Caliper mobility-shift kinase assay, Fluorescein-RFARKGSLRQKNV peptide substrate)
Assay type: biochemical
Settings: example compounds at a final concentration of 1.14 μM (±0.15 μM)
Description: Determination of PKC βII Inhibition
PKC βII Inhibition was Determined According to the Following Protocol:
Active human full-length recombinant PKC βII and the peptide substrate, Fluorescein-RFARKGSLRQKNV, were purchased from Invitrogen GmbH, Darmstadt, Germany. Adenosine-5′-triphosphate (ATP), bovine serum albumine (BSA), dimethylsulphoxide (DMSO), 4-(2-hydroxyethyl)piperazine-1-ethanesulfonic acid (Hepes), Triton X-100, 1,2-Dioleoyl-sn-glycerol (DAG), L-G-Phosphatidyl-L-serine (PS), calcium chloride (CaCl2), and Pluronic F-68 were purchased from Sigma-Aldrich, Munich, Germany. Magnesium chloride, 1 M sodium hydroxide solution, 1M hydrochloric acid solution and EDTA were obtained from Merck Biosciences, Darmstadt, Germany.
Test compounds were diluted to three times the test concentration in buffer 1 (30 mM Hepes-NaOH, pH 7.4, 0.01% Pluronic F-68 and 3% (v/v) DMSO). The PKC enzyme was diluted to a concentration of 30 ng/ml in buffer 2 (30 mM Hepes-NaOH, pH 7.4, 15 mM MgCl2, 150 μM CaCl2, 150 μg/ml PS, 60 μg/ml DAG, and 0.045% (w/v) Triton X-100). The peptide substrate and ATP were diluted to concentrations of 3 μM and 120 μM, respectively, in buffer 2. Two μl of the compound solution were mixed with 2 μl of the diluted enzyme in a 384-well small volume microtiter plate (Greiner, Bio-One, Frickenhausen, Germany), and the kinase reaction was initiated by addition of 2 μl of the solution containing peptide substrate and ATP. After 60 min incubation at 32° C., the reaction was stopped by addition of 20 μl of a solution containing 130 mM Hepes-NaOH, pH 7.4. 0.0195% (v/v) Brij-35, 6.5 mM EDTA. 0.13% chip coating reagent 3 (Caliper Lifescience Inc, Hopkinton, Mass.) and 6.5% (v/v) DMSO. Phosphorylation of the substrate peptide was then detected on a Caliper 3000 instrument essentially as described by Pommereau et al (J. Biomol. Screening 2004, 9(5), 409-416). Separation conditions were as follows: Pressure −0.8 psi, upstream voltage −3000 V, downstream voltage −800 V. Positive controls (buffer 1 instead of compound) and negative controls (buffer 1 instead of compound and buffer 2 instead of kinase solution) were run in parallel on each plate. Fractional turnover (R) was determined as the height of the peak of the phosphorylated peptide product divided by the sum of the unphosphorylated substrate and phosphorylated product peak heights. Percent-inhibition values for the test compounds were determined using the formula % Inhibition=100*(1−(Rcompound−Rnegative control)/(Rpositive control−Rnegative control).
In the following table % inhibition values observed with example compounds at a final concentration of 1.14 μM (±0.15 μM) are listed: […]

T1 sequence (P05771 1-673 isoform P05771-2): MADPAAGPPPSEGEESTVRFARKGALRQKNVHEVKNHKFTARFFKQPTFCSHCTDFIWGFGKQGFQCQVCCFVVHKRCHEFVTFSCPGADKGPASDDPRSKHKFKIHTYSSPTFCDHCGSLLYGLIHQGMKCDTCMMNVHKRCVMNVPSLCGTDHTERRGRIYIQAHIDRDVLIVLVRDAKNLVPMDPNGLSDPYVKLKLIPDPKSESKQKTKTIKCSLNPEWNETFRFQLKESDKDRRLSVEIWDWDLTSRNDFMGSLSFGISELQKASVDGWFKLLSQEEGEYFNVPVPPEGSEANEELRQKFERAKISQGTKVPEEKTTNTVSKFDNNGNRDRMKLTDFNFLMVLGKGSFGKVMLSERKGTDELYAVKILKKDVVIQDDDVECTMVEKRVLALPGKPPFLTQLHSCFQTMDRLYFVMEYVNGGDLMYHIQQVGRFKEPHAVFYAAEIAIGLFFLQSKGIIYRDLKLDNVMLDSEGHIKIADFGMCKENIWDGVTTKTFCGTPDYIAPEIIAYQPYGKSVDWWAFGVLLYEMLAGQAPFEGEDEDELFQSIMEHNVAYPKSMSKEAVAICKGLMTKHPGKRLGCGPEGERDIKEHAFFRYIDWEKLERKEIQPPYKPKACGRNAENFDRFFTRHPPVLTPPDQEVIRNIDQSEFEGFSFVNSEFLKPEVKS

Compound | inhibition at 1.14 µM [%]
Cc1cc(-c2cc(C(=O)N3CCNCC3)c3c(C)n[nH]c3n2)ccc1O [Example 8, [6-(4-Hydroxy-3-methyl-phenyl)-3-methyl-1H-pyrazolo[3,4-b]pyridin-4-yl]-piperazin-1-yl-methanone] | 32
Cc1n[nH]c2nc(-c3ccc(O)c(Cl)c3)cc(C(=O)N3CCNCC3)c12 [Example 9, [6-(3-Chloro-4-hydroxy-phenyl)-3-methyl-1H-pyrazolo[3,4-b]pyridin-4-yl]-piperazin-1-yl-methanone] | 41
COc1cc(-c2cc(C(=O)N3CCNCC3)c3c(C)n[nH]c3n2)ccc1O [Example 10, [6-(4-Hydroxy-3-methoxy-phenyl)-3-methyl-1H-pyrazolo[3,4-b]pyridin-4-yl]-piperazin-1-yl-methanone] | 29
Cc1n[nH]c2nc(-c3cc(F)c(O)c(F)c3)cc(C(=O)N3CCNCC3)c12 [Example 12, [6-(3,5-Difluoro-4-hydroxy-phenyl)-3-methyl-1H-pyrazolo[3,4-b]pyridin-4-yl]-piperazin-1-yl-methanone] | 61
CCOc1cc(-c2cc(C(=O)N3CCNCC3)c3c(C)n[nH]c3n2)ccc1O [Example 15, [6-(3-Ethoxy-4-hydroxy-phenyl)-3-methyl-1H-pyrazolo[3,4-b]pyridin-4-yl]-piperazin-1-yl-methanone] | 35
Cc1n[nH]c2nc(-c3ccc(O)cc3)cc(C(=O)N3CC4CC3CN4)c12 (centres unmarked) [Example 19, 2,5-Diaza-bicyclo[2.2.1]hept-2-yl-[6-(4-hydroxy-phenyl)-3-methyl-1H-pyrazolo[3,4-b]pyridin-4-yl]-methanone] | 92
CC[C@H]1CNCCN1C(=O)c1cc(-c2ccc(O)cc2)nc2[nH]nc(C)c12 [Example 20, ((S)-2-Ethyl-piperazin-1-yl)-[6-(4-hydroxy-phenyl)-3-methyl-1H-pyrazolo[3,4-b]pyridin-4-yl]-methanone] | 110

Results, then the molecule that gave them:

inhibition at 1.14 µM [%] | Compound
101 | Cc1n[nH]c2nc(-c3ccc(O)cc3F)cc(C(=O)N3CCNCC3)c12 [Example 11, [6-(2-Fluoro-4-hydroxy-phenyl)-3-methyl-1H-pyrazolo[3,4-b]pyridin-4-yl]-piperazin-1-yl-methanone]
96 | Cc1cc(O)ccc1-c1cc(C(=O)N2CCNCC2)c2c(C)n[nH]c2n1 [Example 13, [6-(4-Hydroxy-2-methyl-phenyl)-3-methyl-1H-pyrazolo[3,4-b]pyridin-4-yl]-piperazin-1-yl-methanone]
94 | COc1cc(O)ccc1-c1cc(C(=O)N2CCNCC2)c2c(C)n[nH]c2n1 [Example 14, [6-(4-Hydroxy-2-methoxy-phenyl)-3-methyl-1H-pyrazolo[3,4-b]pyridin-4-yl]-piperazin-1-yl-methanone]
69 | Cc1n[nH]c2nc(-c3cc(F)c(O)c(F)c3)cc(C(=O)N3CCNC[C@@H]3C)c12 [Example 16, [6-(3,5-Difluoro-4-hydroxy-phenyl)-3-methyl-1H-pyrazolo[3,4-b]pyridin-4-yl]-((S)-2-methyl-piperazin-1-yl)-methanone]
95 | Cc1cc(O)ccc1-c1cc(C(=O)N2CCNC[C@@H]2C)c2c(C)n[nH]c2n1 [Example 17, [6-(4-Hydroxy-2-methyl-phenyl)-3-methyl-1H-pyrazolo[3,4-b]pyridin-4-yl]-((S)-2-methyl-piperazin-1-yl)-methanone]
94 | COc1cc(O)ccc1-c1cc(C(=O)N2CCNC[C@@H]2C)c2c(C)n[nH]c2n1 [Example 18, [6-(4-Hydroxy-2-methoxy-phenyl)-3-methyl-1H-pyrazolo[3,4-b]pyridin-4-yl]-((S)-2-methyl-piperazin-1-yl)-methanone]
121 | COC[C@H]1CNCCN1C(=O)c1cc(-c2ccc(O)cc2)nc2[nH]nc(C)c12 [Example 21, [6-(4-Hydroxy-phenyl)-3-methyl-1H-pyrazolo[3,4-b]pyridin-4-yl]-((R)-2-methoxymethyl-piperazin-1-yl)-methanone]
